# Data reported in US5324502A, “Radiopharmaceuticals for imaging the heart” (priority 1992, dated 1994).
# Where two headings read alike, the source gives them in different places.
# Columns and labels:
# [1] = rat
# Procedure: The gallium-67 complexes are prepared by ligand exchange from gallium-67 chloride, employing the tris(acetylacetonato)gallium(III) complex as an intermediate. The Ga-67 acetylacetonate in ethanol is reacted with the chelating ligand or ligand precursor at elevated temperature to form rapidly the desired gallium radiopharmaceutical. […] The biodistribution of several radiopharmaceuticals was determined in rats following intravenous injection using techniques previously described (M. A. Green, Nuclear Medicine and Biology 14:59-61, 1987; E. John and M. A. Green, J. Medicinal Chemistry, 33:1764-1770, 1990).
# Under ether anesthesia, 1 to 3 μCi (0.1-0.2 mL) of no-carrier-added Ga-67 compound was administered by bolus injection into the femoral vein of male Sprague-Dawley rats. The ether anesthetized rats were sacrificed by decapitation at given time intervals post-injection, organs of interest were removed, weighed, and the gallium-67 activity counted. The biodistribution was calculated as a percentage of the injected dose per gram of tissue and percentage of injected dose per organ for each sample.
# [2] = Octanol/water partition coefficient of radiolabeled gallium complexes; type: physicochemical; conditions: octanol/tris buffer, pH 7
# Procedure: Octanol/water partition coefficients were measured by vortex mixing 1 mL of 1-octanol and 1 mL of isotonic Tris buffer (pH 7.0) with a 1-5 μL sample of the radiolabeled gallium complex. Following centrifugation at >1200 g for 5 minutes, the octanol and aqueous phases were sampled and counted in an automatic well counter.
structure (smiles),measurement,setting,value
"COc1ccc(C=NCCCNCCNCCCN=Cc2ccc(OC)cc2[O-])c([O-])c1.[67Ga+3] [(4-MeOSal)2 BAPEN, ^67 GaL^+ L = [bis(4-methoxysalicylaldimino)-N,N'-bis(3-aminopropyl)-ethylenediamine]]","% injected dose in heart, 1 min","[1]; in vivo, iv",0.67 ± 0.08 % injected dose
same,"% injected dose in heart, 2 h","[1]; in vivo, iv",0.65 ± 0.05 % injected dose
same,"% Injected Dose per Gram Tissue, Blood","[1]; in vivo, iv, 1 min",0.32 ± 0.02
same,"% Injected Dose per Gram Tissue, Brain","[1]; in vivo, iv, 1 min",0.02 ± 0.01
same,"% Injected Dose per Gram Tissue, Heart","[1]; in vivo, iv, 1 min",0.96 ± 0.07
same,"% Injected Dose per Gram Tissue, Kidney (one)","[1]; in vivo, iv, 1 min",11.08 ± 0.88
same,"% Injected Dose per Gram Tissue, Liver","[1]; in vivo, iv, 1 min",3.05 ± 0.27
same,"% Injected Dose per Gram Tissue, Lungs","[1]; in vivo, iv, 1 min",0.91 ± 0.09
same,"% Injected Dose per Gram Tissue, Spleen","[1]; in vivo, iv, 1 min",0.31 ± 0.05
same,Heart/Blood,"[1]; in vivo, iv, 1 min",2.99 ± 0.15
same,"% Injected Dose per Gram Tissue, Blood","[1]; in vivo, iv, 2 h",0.03 ± 0.01
same,"% Injected Dose per Gram Tissue, Brain","[1]; in vivo, iv, 2 h",0.01 ± 0.003
same,"% Injected Dose per Gram Tissue, Heart","[1]; in vivo, iv, 2 h",0.92 ± 0.07
same,"% Injected Dose per Gram Tissue, Kidney (one)","[1]; in vivo, iv, 2 h",2.19 ± 0.08
same,"% Injected Dose per Gram Tissue, Liver","[1]; in vivo, iv, 2 h",0.63 ± 0.20
same,"% Injected Dose per Gram Tissue, Lungs","[1]; in vivo, iv, 2 h",0.32 ± 0.02
same,"% Injected Dose per Gram Tissue, Spleen","[1]; in vivo, iv, 2 h",0.17 ± 0.03
same,Heart/Blood,"[1]; in vivo, iv, 2 h",30.58 ± 2.22
same,"% Injected Dose per Gram Tissue, Blood","[1]; in vivo, iv, […]",0.06 ± 0.01
same,"% Injected Dose per Gram Tissue, Brain","[1]; in vivo, iv, […]",0.01 ± 0.001
same,"% Injected Dose per Gram Tissue, Heart","[1]; in vivo, iv, […]",1.01 ± 0.08
same,"% Injected Dose per Gram Tissue, Kidney (one)","[1]; in vivo, iv, […]",4.47 ± 0.62
same,"% Injected Dose per Gram Tissue, Liver","[1]; in vivo, iv, […]",1.71 ± 0.40
same,"% Injected Dose per Gram Tissue, Lungs","[1]; in vivo, iv, […]",0.38 ± 0.05
same,"% Injected Dose per Gram Tissue, Spleen","[1]; in vivo, iv, […]",0.22 ± 0.02
same,Heart/Blood,"[1]; in vivo, iv, […]",17.62 ± 0.31
same,log P,[2],0.80
CCN(CC)c1ccc(C=NCCCNCCNCCCN=Cc2ccc(N(CC)CC)cc2[O-])c([O-])c1.[67Ga+3] [(4-deaSal)2 BAPEN],"% Injected Dose per Gram Tissue, Blood","[1]; i.v., 1 min",0.80 ± 0.01 % Injected Dose per Gram Tissu
same,"% Injected Dose per Gram Tissue, Brain","[1]; i.v., 1 min",0.04 ± 0.01 % Injected Dose per Gram Tissu
same,"% Injected Dose per Gram Tissue, Heart","[1]; i.v., 1 min",0.98 ± 0.07 % Injected Dose per Gram Tissu
same,"% Injected Dose per Gram Tissue, Kidney (one)","[1]; i.v., 1 min",7.22 ± 0.48 % Injected Dose per Gram Tissu
same,"% Injected Dose per Gram Tissue, Liver","[1]; i.v., 1 min",4.15 ± 0.25 % Injected Dose per Gram Tissu
same,"% Injected Dose per Gram Tissue, Lungs","[1]; i.v., 1 min",1.16 ± 0.06 % Injected Dose per Gram Tissu
same,"% Injected Dose per Gram Tissue, Spleen","[1]; i.v., 1 min",1.22 ± 0.47 % Injected Dose per Gram Tissu
same,"% injected dose in heart, 1 min","[1]; i.v., 1 min, preliminary studies",0.69 ± 0.05 % injected dose
same,"% Injected Dose Per Gram of Tissue, Blood","[1]; i.v., 5 min",0.39 ± 0.05 % Injected Dose Per Gram of Tissue
same,"% Injected Dose Per Gram of Tissue, Brain","[1]; i.v., 5 min",0.02 ± 0.01 % Injected Dose Per Gram of Tissue
same,"% Injected Dose Per Gram of Tissue, Heart","[1]; i.v., 5 min",0.91 ± 0.06 % Injected Dose Per Gram of Tissue
same,"% Injected Dose Per Gram of Tissue, Kidney (1)","[1]; i.v., 5 min",7.11 ± 0.89 % Injected Dose Per Gram of Tissue
same,"% Injected Dose Per Gram of Tissue, Liver","[1]; i.v., 5 min",3.96 ± 0.28 % Injected Dose Per Gram of Tissue
same,"% Injected Dose Per Gram of Tissue, Lungs","[1]; i.v., 5 min",0.89 ± 0.19 % Injected Dose Per Gram of Tissue
same,"% Injected Dose Per Gram of Tissue, Spleen","[1]; i.v., 5 min",1.19 % Injected Dose Per Gram of Tissue
same,"% Injected Dose per Gram Tissue, Blood","[1]; i.v., 15 min",0.20 ± 0.03 % Injected Dose per Gram Tissu
same,"% Injected Dose per Gram Tissue, Brain","[1]; i.v., 15 min",0.02 ± 0.00 % Injected Dose per Gram Tissu
same,"% Injected Dose per Gram Tissue, Heart","[1]; i.v., 15 min",0.90 ± 0.06 % Injected Dose per Gram Tissu
same,"% Injected Dose per Gram Tissue, Kidney (one)","[1]; i.v., 15 min",6.82 ± 0.53 % Injected Dose per Gram Tissu
same,"% Injected Dose per Gram Tissue, Liver","[1]; i.v., 15 min",3.21 ± 0.25 % Injected Dose per Gram Tissu
same,"% Injected Dose per Gram Tissue, Lungs","[1]; i.v., 15 min",0.70 ± 0.07 % Injected Dose per Gram Tissu
same,"% Injected Dose per Gram Tissue, Spleen","[1]; i.v., 15 min",1.27 ± 0.17 % Injected Dose per Gram Tissu
same,"% Injected Dose per Gram Tissue, Blood","[1]; i.v., 120 min",0.10 ± 0.01 % Injected Dose per Gram Tissu
same,"% Injected Dose per Gram Tissue, Brain","[1]; i.v., 120 min",0.02 ± 0.01 % Injected Dose per Gram Tissu
same,"% Injected Dose per Gram Tissue, Heart","[1]; i.v., 120 min",0.92 ± 0.10 % Injected Dose per Gram Tissu
same,"% Injected Dose per Gram Tissue, Kidney (one)","[1]; i.v., 120 min",5.69 ± 0.75 % Injected Dose per Gram Tissu
same,"% Injected Dose per Gram Tissue, Liver","[1]; i.v., 120 min",1.07 ± 0.10 % Injected Dose per Gram Tissu
same,"% Injected Dose per Gram Tissue, Lungs","[1]; i.v., 120 min",0.53 ± 0.06 % Injected Dose per Gram Tissu
same,"% Injected Dose per Gram Tissue, Spleen","[1]; i.v., 120 min",0.99 ± 0.18 % Injected Dose per Gram Tissu
same,"% injected dose in heart, 2 h","[1]; i.v., 2 h, preliminary studies",0.65 ± 0.05 % injected dose
same,Heart/Blood,"[1]; ratio, i.v., 1 min",1.22 ± 0.08
same,Heart/Liver,"[1]; ratio, i.v., 1 min",0.24 ± 0.03
same,Heart/Lungs,"[1]; ratio, i.v., 1 min",0.85 ± 0.10
same,Heart/Blood,"[1]; ratio, i.v., 5 min",2.36 ± 0.25
same,Heart/Liver,"[1]; ratio, i.v., 5 min",0.23 ± 0.02
same,Heart/Lung,"[1]; ratio, i.v., 5 min",1.05 ± 0.19
same,Heart/Blood,"[1]; ratio, i.v., 15 min",4.54 ± 0.31
same,Heart/Liver,"[1]; ratio, i.v., 15 min",0.28 ± 0.04
same,Heart/Lungs,"[1]; ratio, i.v., 15 min",1.29 ± 0.05
same,Heart/Blood,"[1]; ratio, i.v., 120 min",9.21 ± 1.12
same,Heart/Liver,"[1]; ratio, i.v., 120 min",0.86 ± 0.18
same,Heart/Lungs,"[1]; ratio, i.v., 120 min",1.74 ± 0.35
same,log P,[2],2.44
"COc1ccc([O-])c(C=NCCCNCCNCCCN=Cc2cc(OC)ccc2[O-])c1.[67Ga+3] [(5-MeOSal)2 BAPEN, ^67 GaL^+ L = [bis(5-methoxysalicylaldimino)-N,N'-bis(3-aminopropyl)ethylenediamine]]","% Injected Dose per Gram Tissue, Brain","[1]; in vivo, iv",0.00 ± 0.00
same,"% injected dose in heart, 1 min","[1]; in vivo, iv",0.34 ± 0.03 % injected dose
same,"% injected dose in heart, 2 h","[1]; in vivo, iv",0.23 ± 0.03 % injected dose
same,"% Injected Dose per Gram Tissue, Blood","[1]; in vivo, iv, 1 min",0.52 ± 0.08
same,"% Injected Dose per Gram Tissue, Brain","[1]; in vivo, iv, 1 min",0.02 ± 0.01
same,"% Injected Dose per Gram Tissue, Heart","[1]; in vivo, iv, 1 min",0.46 ± 0.03
same,"% Injected Dose per Gram Tissue, Kidney (one)","[1]; in vivo, iv, 1 min",9.31 ± 0.32
same,"% Injected Dose per Gram Tissue, Liver","[1]; in vivo, iv, 1 min",3.01 ± 0.51
same,"% Injected Dose per Gram Tissue, Lungs","[1]; in vivo, iv, 1 min",0.55 ± 0.14
same,"% Injected Dose per Gram Tissue, Spleen","[1]; in vivo, iv, 1 min",0.25 ± 0.02
same,Heart/Blood,"[1]; in vivo, iv, 1 min",0.89 ± 0.12
same,"% Injected Dose per Gram Tissue, Blood","[1]; in vivo, iv, 2 h",0.08 ± 0.01
same,"% Injected Dose per Gram Tissue, Heart","[1]; in vivo, iv, 2 h",0.33 ± 0.03
same,"% Injected Dose per Gram Tissue, Kidney (one)","[1]; in vivo, iv, 2 h",1.57 ± 0.13
same,"% Injected Dose per Gram Tissue, Liver","[1]; in vivo, iv, 2 h",0.78 ± 0.01
same,"% Injected Dose per Gram Tissue, Lungs","[1]; in vivo, iv, 2 h",0.16 ± 0.02
same,"% Injected Dose per Gram Tissue, Spleen","[1]; in vivo, iv, 2 h",0.07 ± 0.01
same,Heart/Blood,"[1]; in vivo, iv, 2 h",4.33 ± 0.28
same,"% Injected Dose per Gram Tissue, Blood","[1]; in vivo, iv, […]",0.15 ± 0.04
same,"% Injected Dose per Gram Tissue, Heart","[1]; in vivo, iv, […]",0.36 ± 0.01
same,"% Injected Dose per Gram Tissue, Kidney (one)","[1]; in vivo, iv, […]",4.65 ± 1.29
same,"% Injected Dose per Gram Tissue, Liver","[1]; in vivo, iv, […]",2.09 ± 0.78
same,"% Injected Dose per Gram Tissue, Lungs","[1]; in vivo, iv, […]",0.22 ± 0.22
same,"% Injected Dose per Gram Tissue, Spleen","[1]; in vivo, iv, […]",0.09 ± 0.01
same,Heart/Blood,"[1]; in vivo, iv, […]",2.61 ± 0.55
same,log P,[2],0.53
